Data on 28 compounds can be found in US9394297B2, “Amides as pim inhibitors” (AMGEN INC., priority 2012, dated 2016).

The target in test [1] is Pim-1 (Homo sapiens (Human), UniProt P11309). The test is described as follows: Pim-Mn enzyme assay (HTRF, 384-well), Pim-1. The test is classed as biochemical. Particulars: read-out: Pim-1-Mn IC50 IP.
The target of test [2] is Pim-2 (Homo sapiens (Human), UniProt Q9P1W9). Kind of test: Pim-Mn enzyme assay (HTRF, 384-well), Pim-2. The format is biochemical. Particulars: read-out: Pim-2-Mn IC50 IP. A general note: TR-FRET usually uses a lanthanide donor and a delayed reading to cut background.
Test [3] has as its system KMS-12-BM cell lines. Kind of test: KMS12 #2 flow cytometry assay (phospho-BAD Ser112). The format is cell-based. Particulars: KMS-12-BM cells, pBAD Ser112 by flow cytometry, 110 min with compound, read-out: KMS-12-Flow IC50 IP. (In general: In flow cytometry, cells or beads pass a laser one at a time.)
[4] abbreviates: Pim-1 enzyme 5 pM, ATP 1.5 μM, BAD (S112) 0.5 μM, HTRF, 22-point curve.
Setting [5] is: Pim-2 enzyme 0.5 pM, ATP 1.5 μM, BAD (S112) 0.5 μM, HTRF, 22-point curve.

Counter-ions that a name gives are not always drawn. Like-named read-outs stand apart in the source and are kept apart here.

Pim-2, sequence (Q9P1W9 whole entry): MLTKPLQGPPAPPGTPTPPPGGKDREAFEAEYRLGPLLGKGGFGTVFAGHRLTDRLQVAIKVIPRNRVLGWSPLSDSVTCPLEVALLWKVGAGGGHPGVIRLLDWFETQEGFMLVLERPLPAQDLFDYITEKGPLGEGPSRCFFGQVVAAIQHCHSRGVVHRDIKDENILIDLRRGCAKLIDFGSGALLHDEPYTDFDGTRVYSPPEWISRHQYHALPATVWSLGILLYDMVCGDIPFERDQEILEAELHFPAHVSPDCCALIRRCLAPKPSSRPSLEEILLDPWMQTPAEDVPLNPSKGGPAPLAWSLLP
Pim-1, sequence (P11309 whole entry): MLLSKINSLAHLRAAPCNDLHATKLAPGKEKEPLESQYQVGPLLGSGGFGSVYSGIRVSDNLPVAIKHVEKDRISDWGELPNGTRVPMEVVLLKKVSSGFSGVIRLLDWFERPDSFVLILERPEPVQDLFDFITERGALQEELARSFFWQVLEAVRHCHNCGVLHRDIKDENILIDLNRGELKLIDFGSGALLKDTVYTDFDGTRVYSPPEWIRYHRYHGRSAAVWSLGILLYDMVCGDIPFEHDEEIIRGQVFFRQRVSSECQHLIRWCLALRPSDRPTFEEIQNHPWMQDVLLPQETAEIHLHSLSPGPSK

Consider `CC(C)(C)Nc1nc2c(-c3cc4c([nH]3)CCNC4=O)cccc2nc1N` [Example 304, 2-(2-amino-3-(tert-butylamino)quinoxalin-5-yl)-6,7-dihydro-1H-pyrrolo[3,2-c]pyridin-4(5H)-one], for which the IC50 (as a rule, the point on the concentration scale where inhibition reaches its midpoint) in test [1] (setting [4]) stood at 0.791 nM; in test [2] (setting [5]) it was 0.429 nM; in test [3] (Homo sapiens, 110 min), 87.6 nM.
For `Cc1nc2cccc(-c3cc4n(c3)C(=O)NC4=O)c2nc1NC(C)(C)C` [Example 422, 6-(3-(tert-Butylamino)-2-methyl-5-quinoxalinyl)-1H-pyrrolo[1,2-c]imidazole-1,3(2H)-dione], in that order: 12.3 nM, 37.1 nM and 2610 nM.
Taken in the same sequence, the figures for `Cc1nc2cccc(-c3cc4c([nH]3)CCNC4=O)c2nc1-c1ccoc1C` [Example 433, 2-(2-Methyl-3-(2-methylfuran-3-yl)quinoxalin-5-yl)-6,7-dihydro-1H-pyrrolo[3,2-c]pyridin-4(5H)-one] were 30.9 nM, 40.9 nM and 8400 nM.
For `Cc1cccc(C)c1-c1cnc2cccc(-c3cc4c([nH]3)CCNC4=O)c2n1` [Example 401, 2-(3-(2,6-dimethylphenyl)-5-quinoxalinyl)-1,5,6,7-tetrahydro-4H-pyrrolo[3,2-c]pyridin-4-one], in that order: 19.5 nM, 34.9 nM and 18500 nM.
As to `Cc1nc2cccc(-c3cc4c([nH]3)CCNC4=O)c2nc1-c1ccccc1Cl` [Example 427, 2-(3-(2-Chlorophenyl)-2-methylquinoxalin-5-yl)-6,7-dihydro-1H-pyrrolo[3,2-c]pyridin-4(5H)-one], the IC50 is 23.3 nM in test [1] (setting [4]); 82 nM in test [2] (setting [5]); greater than 40000 nM in test [3] (Homo sapiens, 110 min).
For `Cc1nc2cccc(-c3cc4c([nH]3)CCNC4=O)c2nc1-c1ccccc1F` [Example 428, 2-(3-(2-Fluorophenyl)-2-methylquinoxalin-5-yl)-6,7-dihydro-1H-pyrrolo[3,2-c]pyridin-4(5H)-one], the IC50 in test [1] (setting [4]) is 39.9 nM; in test [2] (setting [5]), 47.4 nM; in test [3] (Homo sapiens, 110 min), greater than 40000 nM.
For `Cc1nccn1-c1cnc2cccc(-c3cc4c([nH]3)CCNC4=O)c2n1` [Example 320], in that order: 176 nM, 272 nM and greater than 40000 nM.
`Cc1nc2cccc(-c3cc4c(=O)[nH]nc(C)c4[nH]3)c2nc1NC(C)(C)C` [Example 416, 2-(3-(tert-butylamino)-2-methylquinoxalin-5-yl)-7-methyl-1H-pyrrolo[2,3-d]pyridazin-4(5H)-one]: the IC50 in test [1] came to 7.63 nM; in test [2], 15.8 nM; in test [3] (Homo sapiens, 110 min), 2950 nM.
Regarding `CCc1nc2cccc(-c3cc4c([nH]3)CCNC4=O)c2nc1NC(C)(C)C` [Example 312, 2-(3-(tert-butylamino)-2-ethylquinoxalin-5-yl)-6,7-dihydro-1H-pyrrolo[3,2-c]pyridin-4(5H)-one], the IC50 amounted to 0.271 nM in test [1] (setting [4]); 0.195 nM in test [2] (setting [5]); 123 nM in test [3] (Homo sapiens, 110 min).
`C[C@H]1NC(=O)c2cc(-c3cccc4c(=O)[nH]c(N(C)C(C)(C)C)nc34)[nH]c21` [Example 407, 2-(tert-butyl(methyl)amino)-8-((6R)-6-methyl-4-oxo-1,4,5,6-tetrahydropyrrolo[3,4-b]pyrrol-2-yl)-4(3H)-quinazolinone]: the IC50 in test [2] (setting [5]) came out at 0.4 nM; in test [3] (Homo sapiens, 110 min), 144 nM.
Consider `CC(=O)N1CCc2[nH]c(-c3cccc4nc(C)c(NC(C)(C)C)nc34)cc2C1=O` [Example 315, 5-acetyl-2-(3-(tert-butylamino)-2-methylquinoxalin-5-yl)-6,7-dihydro-1H-pyrrolo[3,2-c]pyridin-4(5H)-one], for which the IC50 came to 35.2 nM in test [1] (setting [4]) and 895 nM in test [3] (Homo sapiens, 110 min).
Consider `Cc1nc2cccc(-c3cc4c([nH]3)CCNC4=O)c2nc1NC(C)(C)CCS(C)(=O)=O` [Example 338, 2-(3-((1,1-dimethyl-3-(methylsulfonyl)propyl)amino)-2-methyl-5-quinoxalinyl)-1,5,6,7-tetrahydro-4H-pyrrolo[3,2-c]pyridin-4-one], for which the IC50 in test [3] (Homo sapiens, 110 min) was 14300 nM.
The same measure, in the same setting: in the case of `CC(C)n1c(NC(C)(C)C)nc2c(-c3cc4c([nH]3)[C@@H](C)NC4=O)cccc2c1=O` [Example 406, 2-(tert-butylamino)-3-(1-methylethyl)-8-((6R)-6-methyl-4-oxo-1,4,5,6-tetrahydropyrrolo[3,4-b]pyrrol-2-yl)-4(3H)-quinazolinone] it was 30 nM; in that of `Cc1nc2cccc(-c3cc4c([nH]3)[C@@H](C)NC4=O)c2nc1NCC(F)F` [Example 382, (R)-2-(3-((2,2-difluoroethyl)amino)-2-methylquinoxalin-5-yl)-6-methyl-5,6-dihydropyrrolo[3,4-b]pyrrol-4(1H)-one], 82.5 nM; in that of `Cc1nc2ccc(F)c(-c3cc4c([nH]3)[C@H](C)NC4=O)c2nc1NC(C)(C)C` [Example 298, (6S)-2-(3-(tert-butylamino)-6-fluoro-2-methyl-5-quinoxalinyl)-6-methyl-5,6-dihydropyrrolo[3,4-b]pyrrol-4(1H)-one], 57.1 nM.
Regarding `C[C@H]1NC(=O)c2cc(-c3cccc4c(=O)n(C5CC5)c(NC(C)(C)C)nc34)[nH]c21` [Example 475, 2-(tert-butylamino)-3-cyclopropyl-8-((6R)-6-methyl-4-oxo-1,4,5,6-tetrahydropyrrolo[3,4-b]pyrrol-2-yl)-4(3H)-quinazolinone], in test [3] (Homo sapiens, 110 min), the IC50 turned out to be 28 nM.
The same measure, in the same setting: in the case of `Cn1c(NC(C)(C)C)nc2c(-c3cc4c([nH]3)C3(CC3)NC4=O)cccc2c1=O` [Example 456, 2′-(2-(tert-butylamino)-3-methyl-4-oxo-3,4-dihydro-8-quinazolinyl)-1′H-spiro[cyclopropane-1,6′-pyrrolo[3,4-b]pyrrol]-4′(5′H)-one] it was 29.4 nM.
On to `Cc1nc2cccc(-c3cc4c([nH]3)CCNC4=O)c2nc1N[C@H]1C[C@@H](N)C1` [Example 435, 2-(3-((cis-3-aminocyclobutyl)amino)-2-methylquinoxalin-5-yl)-6,7-dihydro-1H-pyrrolo[3,2-c]pyridin-4(5H)-one hydrochloride], for which the IC50 in test [1] (setting [4]) was 0.347 nM; in test [3] (Homo sapiens, 110 min), 3000 nM.
For `Cc1nc2cccc(-c3cc4c([nH]3)CCCNC4=O)c2nc1NC(C)(C)C` [Example 305, 2-(3-(tert-butylamino)-2-methylquinoxalin-5-yl)-5,6,7,8-tetrahydropyrrolo[3,2-c]azepin-4(1H)-one], in that order: 2.63 nM and 1640 nM.
`Cc1nc2cccc(-c3cc4c(n3C)C(CO)NC4=O)c2nc1NC(C)(C)C` (racemic) [Example 470, (R)-2-(3-(tert-butylamino)-2-methylquinoxalin-5-yl)-6-(hydroxymethyl)-1-methyl-5,6-dihydropyrrolo[3,4-b]pyrrol-4(1H)-one and (S)-2-(3-(tert-butylamino)-2-methylquinoxalin-5-yl)-6-(hydroxymethyl)-1-methyl-5,6-dihydropyrrolo[3,4-b]pyrrol-4(1H)-one]: the IC50 in test [3] (Homo sapiens, 110 min) is 1280 nM.
For the compound `Cc1nc2cccc(-c3cc4c([nH]3)CCNC4=O)c2nc1N[C@H]1C[C@@H](N2CCOC2=O)C1` [Example 443, 3-((1s,3s)-3-((3-methyl-8-(4-oxo-4,5,6,7-tetrahydro-1H-pyrrolo[3,2-c]pyridin-2-yl)quinoxalin-2-yl)amino)cyclobutyl)oxazolidin-2-one], in test [3], the IC50 is greater than 40000 nM.
Turning to `C[C@H]1NC(=O)c2cc(-c3c(F)ccc4c(=O)n(C)c(NC(C)(C)C)nc34)[nH]c21` [Example 405, 2-(tert-butylamino)-7-fluoro-3-methyl-8-((6R)-6-methyl-4-oxo-1,4,5,6-tetrahydropyrrolo[3,4-b]pyrrol-2-yl)-4(3H)-quinazolinone], the IC50 in test [3] (Homo sapiens, 110 min) was 28 nM.
On to `Cc1nc2cccc(-c3[nH]c4c(c3Cl)C(=O)NCC4)c2nc1NC(C)(C)C` [Example 348, 2-(3-(tert-butylamino)-2-methyl-5-quinoxalinyl)-3-chloro-1,5,6,7-tetrahydro-4H-pyrrolo[3,2-c]pyridin-4-one], for which, in test [3] (Homo sapiens, 110 min), the IC50 is 190 nM.
Still for that read-out and setting: in the case of `Cc1nc2cccc(-c3cc4c([nH]3)[C@H](C)NC4=O)c2nc1NC(C)(C)C` [Example 327, (6S)-2-(3-(tert-butylamino)-2-methyl-5-quinoxalinyl)-6-methyl-5,6-dihydropyrrolo[3,4-b]pyrrol-4(1H)-one] it was 98.6 nM.
Still for that read-out and setting: in the case of `Cc1nc2cccc(-c3cc4c([nH]3)[C@@H](C)NC4=S)c2nc1NC(C)(C)C` [Example 332, (6R)-2-(3-(tert-butylamino)-2-methyl-5-quinoxalinyl)-6-methyl-5,6-dihydropyrrolo[3,4-b]pyrrole-4(1H)-thione] it was greater than 40000 nM.
On to `Cc1nc2cccc(-c3cc4c([nH]3)CCNC4=O)c2nc1NC(C)(C)CNC(=O)OC(C)(C)C` [Example 339, tert-butyl (2-methyl-2-((3-methyl-8-(4-oxo-4,5,6,7-tetrahydro-1H-pyrrolo[3,2-c]pyridin-2-yl)-2-quinoxalinyl)amino)propyl)carbamate], for which the IC50 in test [1] (setting [4]) worked out at 50.8 nM; in test [3] (Homo sapiens, 110 min), 2520 nM.
For `Cn1c(NC(C)(C)C)nc2c(-c3cc4c([nH]3)CCNC4=O)cccc2c1=O` [Example 448, 2-(tert-butylamino)-3-methyl-8-(4-oxo-4,5,6,7-tetrahydro-1H-pyrrolo[3,2-c]pyridin-2-yl)-4(3H)-quinazolinone], the IC50 in test [2] (setting [5]) was determined as 0.169 nM; in test [3] (Homo sapiens, 110 min) it was 30.8 nM.
Regarding `Cc1nc2cccc(-c3cc4c([nH]3)C(CCN)NC4=O)c2nc1NC(C)(C)C` (stereo not shown) [Example 463, 6-(2-aminoethyl)-2-(3-(tert-butylamino)-2-methyl-5-quinoxalinyl)-5,6-dihydropyrrolo[3,4-b]pyrrol-4(1H)-one], the IC50 in test [3] (Homo sapiens, 110 min) stood at 9 nM.
